For data set [1], the system named is Vascular smooth muscle cells from human aorta. Kind of data set: Growth inhibition of smooth muscle cells by full-length TFPI or TFPI lacking the C-terminal region (cell count, DME). The format is cell-based. The note with it: 50 μg/ml in DME, counted nine days after plating, 3 wells, Student's t-test. As to the method: Vascular smooth muscle cells from human aorta (purchased from Kurabo K.K.) were used and subjected to passage culture with Dulbecco modified Eagle medium (hereinafter referred to as "DME") supplemented with 10% fetal calf serum. The smooth muscle cells with six passages were used in the following experiment.
The smooth muscle cells suspended in DME were plated on a 48 well culture plate (manufactured by Iwaki Glass K.K.) at a cell density of 5,000 cells/well and incubated in CO2 incubator at 37° C. Two days after plating, the culture medium was exchanged with DME containing 50 μg/ml of full-length TFPI or 50 μg/ml of TFPI lacking the C-terminal region or with DME alone as a control and culture was continued in CO2 incubator at 37° C. while the culture medium was exchanged with a fresh medium on every 2 days. The culture medium was used at 0.3 ml/well. Nine days after plating, the cells attached to the plate were detached by treatment with a trypsin/EDTA solution and then a cell number per well was counted with a hemocytometer. FIG. 1 is a graph showing a mean cell number as well as a standard deviation for three wells in each group.

The test system of the next data set is smooth muscle cells. Nature of the data set: Cellular toxicity with Cytotox 96 kit. The format is cell-based, human. The note with it: Cytotox 96 kit (Promega).

As for “full-length TFPI: intact human tissue factor pathway inhibitor purified from culture supernatant of Chinese hamster ovary cell line”, the “activity to inhibit growth of smooth muscle cells (cell number per well vs control)” value in data set [1] is “significantly decreased cell number”. Moreover, the cellular toxicity result in the data set on smooth muscle cells is “did not exhibit cellular toxicity”.

These data come from US6191113A, “Peptide for inhibiting growth of smooth muscle cells” (Juridical Foundation The Chemo-Sero-Therapeutic Research …, priority 1995, dated 2001).
